In brackets after ≈: the same amount, converted by molar mass. Activity calls are given as the source filed them. The rule behind the calls is not given here.
Assays:
[1] = target: Prothrombin (Homo sapiens) (UniProt P00734); assay: Inhibition of thrombin-mediated conversion of fibrinogen to fibrin
HepG2 = assay: Cytotoxicity against human HepG2 cells; type: functional, cell-based
[2] = Cytotoxicity against human HepG2(2.2.15) cells; type: functional, cell-based

Row | SMILES | Activity [1] | IC50 (HepG2) | IC50 [2]
1 | COC1=C[C@@]23CCN(C)[C@@H](Cc4ccc(OC)c(O)c42)C3=CC1=O | inactive | 10.2 µg/mL (≈ 31.2 µM) | 10.4 µg/mL (≈ 31.8 µM)
2 | COc1c2c3c(c4c1OCO4)-c1ccccc1C[C@H]3N(C(C)=O)CC2 | inactive | 9.8 µg/mL (≈ 29 µM) | 9.3 µg/mL (≈ 27.6 µM)
3 | COc1c2c3c(c4c1OCO4)-c1ccccc1[C@@H](O)[C@H]3NCC2 [ARTABONATINE B] | inactive | 9.1 µg/mL (≈ 29.2 µM) | 11 µg/mL (≈ 35.3 µM)
4 | COc1ccc2c(c1)C(=O)c1nccc3cc4c(c-2c13)OCO4 [ATHEROSPERMIDINE] | inactive | 0.8 µg/mL (≈ 2.62 µM) | 2.2 µg/mL (≈ 7.21 µM)
5 | COC1=C[C@]23CCN(C)[C@H](Cc4cc(OC)c(O)cc42)C3=CC1=O [FLAVINANTINE] | inactive | 9.3 µg/mL (≈ 28.4 µM) | 9.7 µg/mL (≈ 29.6 µM)
6 | NC(=O)N1CCCC1=O [SQUAMOLONE] | inactive | 2.8 µg/mL (≈ 21.9 µM) | 1.6 µg/mL (≈ 12.5 µM)
7 | CC(C)=C1C=C(CN2CCCC2=O)C(=O)O1 [UNCININE] | inactive | 6.1 µg/mL (≈ 27.6 µM) | 7.4 µg/mL (≈ 33.4 µM)
